Source: patent US11352350B2, “IRAK degraders and uses thereof” (Kymera Therapeutics, Inc., priority 2018, dated 2022)

How the values were obtained:
IRAK4 [1] = biological target: T1, IRAK4 (Homo sapiens (Human), UniProt Q9NWZ3); test: IRAK4 MSD degradation in OCI-LY10; type: cell-based
Summary of the method: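 OCI-LY10 cells treated with 8-point 1:3 dilutions (top 1 to 10 μM final) for 4 to 24 h at 37° C. Lysate IRAK4 measured by MSD sandwich immunoassay (2H9 capture, Y279 detection, SULFO-TAG anti-rabbit). DC50 from three-parameter logistic fit.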

IRAK4 [2] = biological target: T1, IRAK4; test: hPBMC IRAK4 degradation flow assay; type: cell-based; details: hPBMC monocyte
Summary of the method: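 Thawed human PBMCs treated with 10-point, 5-fold compound dilutions (0.1% DMSO) at 37° C. for 20 hours or 4 hours. IRAK4 measured by flow MFI in CD14+ monocytes and CD14− lymphocytes, normalized to DMSO and 10 μM 20-hour control; DC50 and max degradation from 4-parameter logistic fit.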

OCI-LY10 = test: CTG Cell Viability Assay - OCI-LY10; type: cell-based, human; details: Homo sapiens, OCI-Ly10, 96 h, OCI-LY10, 4 days; read-out: CTG Cell Viability Assay - OCI-LY10: Average external-IC50
Summary of the method: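 OCI-LY10 cells exposed to 9-dose, 1:3 dilutions from 10 μM top (0.2% DMSO) for 4 days at 37° C, 5% CO2. Viability by CellTiter-Glo luminescence; IC50 from three-parameter logistic fit.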

IL-6 = IL-6 secretion in hPBMC using R848 stimulation; type: cell-based, human; details: hPBMC, R848 as stim, t = 20 h
[3] = OCI-LY10, 4 hrs, MSD, read-out: IRAK4 MSD degradation in OCI-LY10 at 4 hrs: Average external-Abs DC50
[4] = 20 hr, flow assay, read-out: IRAK4 degradation in hPBMC monocyte at 20 hr: Average external Abs DC50
[5] = OCI-LY10, 4 hrs, read-out: IRAK4 MSD degradation in OCI-LY10 at 4 hrs: DC50
[6] = 20 hrs, read-out: IRAK4 degradation in hPBMC monocyte: DC50
[7] = OCI-LY10, 24 hrs, MSD, read-out: IRAK4 MSD degradation in OCI-LY10 at 24 hrs: Average external-Abs DC50

T1 sequence (Q9NWZ3 whole entry): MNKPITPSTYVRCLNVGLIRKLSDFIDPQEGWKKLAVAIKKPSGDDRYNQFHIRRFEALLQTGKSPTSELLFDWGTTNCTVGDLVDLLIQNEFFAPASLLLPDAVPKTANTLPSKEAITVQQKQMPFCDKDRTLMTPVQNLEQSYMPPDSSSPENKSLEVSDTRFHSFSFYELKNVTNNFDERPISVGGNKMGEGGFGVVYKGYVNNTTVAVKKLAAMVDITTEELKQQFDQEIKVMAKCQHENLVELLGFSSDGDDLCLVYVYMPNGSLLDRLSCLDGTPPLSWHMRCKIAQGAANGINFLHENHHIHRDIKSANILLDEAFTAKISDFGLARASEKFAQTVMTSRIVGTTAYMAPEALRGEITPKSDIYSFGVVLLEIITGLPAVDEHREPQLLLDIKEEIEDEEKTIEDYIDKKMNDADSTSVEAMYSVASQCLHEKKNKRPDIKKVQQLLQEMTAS

| SMILES | DC50 (IRAK4 [1]; [3]) | DC50 (IRAK4 [2]; [4]) | IC50 (OCI-LY10) | IC50 (IL-6; Homo sapiens, 20 h) | DC50 (IRAK4 [1]; [5]) | DC50 (IRAK4 [2]; [6]) | DC50 (IRAK4 [1]; [7]) | IC50 (IL-6) |
| --- | --- | --- | --- | --- | --- | --- | --- | --- |
| Cn1c(=O)n(C2CCC(=O)NC2=O)c2cccc(CCCN3CCOC4(CCN(C(=O)c5ccc(-n6cc(NC(=O)c7cnn8ccc(N9C[C@H]%10C[C@@H]9CO%10)nc78)c(C(F)F)n6)cc5)CC4)C3)c21 (stereo partly shown) [I-424] | < 10 nM | < 10 nM | > 1000 nM | 1 to 10 nM | – | – | – | – |
| Cn1c(=O)n(C2CCC(=O)NC2=O)c2cccc(CCC3CCN(C[C@H]4CC[C@H](n5cc(NC(=O)c6cnn7ccc(N8C[C@H]9C[C@@H]8CO9)nc67)c(C(F)F)n5)CC4)CC3)c21 (stereo partly shown) [I-487] | – | – | > 1000 nM | < 1 nM | 10 to 100 nM | < 10 nM | – | – |
| Cn1c(=O)n(C2CCC(=O)NC2=O)c2cccc(CCCOC3CCN(C[C@H]4CC[C@H](n5cc(NC(=O)c6cnn7cccnc67)c(N6CCOCC6)n5)CC4)CC3)c21 (stereo partly shown) [I-481] | – | – | > 1000 nM | 10 to 100 nM | 100 to 1000 nM | 100 to 1000 nM | – | – |
| Cn1c(=O)n(C2CCC(=O)NC2=O)c2cccc(CC[C@@H]3CN(C[C@H]4CC[C@H](C5N=C(NC(=O)c6cnn7ccc(N8CCCOCC8)nc67)C(C(F)F)=N5)CC4)CCO3)c21 (stereo partly shown) [I-514] | – | – | > 1000 nM | < 1 nM | < 10 nM | < 10 nM | – | – |
| CC[C@@H]1[C@H](F)C(=O)N[C@@H]1COc1ncc(C#C[C@H]2CC[C@H](CN(C)CCCOCCCc3ccc4c(c3)n(C)c(=O)n4C3CCC(=O)NC3=O)CC2)c2cc(C(N)=O)c(OC)cc12 (stereo partly shown) [I-185] | 10 to 100 nM | < 10 nM | > 1000 nM | < 1 nM | – | – | 10 to 100 nM | – |
| C[C@H](C#Cc1cccc2c1N(C)C(=O)C2C1CCC(=O)NC1=O)OC1CCN(C[C@H]2CC[C@H](n3cc(NC(=O)c4cnn5ccc(N6C[C@H]7C[C@@H]6CO7)nc45)c(C(F)F)n3)CC2)CC1 (stereo partly shown) [I-555] | – | – | > 1000 nM | 1 to 10 nM | < 10 nM | < 10 nM | – | – |
| CN(C[C@@H]1CN(Cc2cccc3c2n(C)c(=O)n3C2CCC(=O)NC2=O)CCO1)C[C@H]1CC[C@H](n2cc(NC(=O)c3cnn4ccc(N5C[C@H]6C[C@@H]5CO6)nc34)c(C(F)F)n2)CC1 (stereo partly shown) [I-411] | > 1000 nM | 10 to 100 nM | > 1000 nM | < 1 nM | – | – | – | – |
| Cn1c(=O)n(C2CCC(=O)NC2=O)c2cccc(OC3CC4(CCN(C[C@H]5CC[C@H](n6cc(NC(=O)c7cnn8ccc(N9C[C@H]%10C[C@@H]9CO%10)nc78)c(C(F)F)n6)CC5)CC4)C3)c21 (stereo partly shown) [I-526] | – | – | > 1000 nM | < 1 nM | < 10 nM | < 10 nM | – | – |
| Cc1ccc(-c2nn([C@H]3CC[C@H](C(=O)N4CCC5(CC4)CN(CCCc4cccc6c4n(C)c(=O)n6C4CCC(=O)NC4=O)C5)CC3)cc2NC(=O)c2cnn3cccnc23)nc1 (stereo partly shown) [I-499] | – | – | > 1000 nM | 1 to 10 nM | < 10 nM | < 10 nM | – | – |
| Cn1c(=O)n(C2CCC(=O)NC2=O)c2cccc(CC(=O)N3CC4(CCN(C[C@H]5CC[C@H](n6cc(NC(=O)c7cnn8ccc(N9C[C@H]%10C[C@@H]9CO%10)nc78)c(C(F)F)n6)CC5)CC4)C3)c21 (stereo partly shown) [I-421] | < 10 nM | < 10 nM | > 1000 nM | < 1 nM | – | – | – | – |
| O=C1CCC(n2c3cccc(C#CCOC4CCN(C[C@H]5CC[C@H](n6cc(NC(=O)c7cnn8ccc(N9C[C@H]%10C[C@@H]9CO%10)nc78)c(C(F)F)n6)CC5)CC4)c3c3cccnc32)C(=O)N1 (stereo partly shown) [I-482] | – | – | > 1000 nM | 1 to 10 nM | 10 to 100 nM | 100 to 1000 nM | – | – |
| Cn1c(=O)n(C2CCC(=O)NC2=O)c2cccc(CCCC3CCN(C[C@H]4CC[C@H](n5cc(NC(=O)c6cnn7ccc(N8CCOC(C)(C)C8)nc67)c(C(F)F)n5)CC4)CC3)c21 (stereo partly shown) [I-525] | – | – | > 1000 nM | < 1 nM | 10 to 100 nM | < 10 nM | – | – |
| CN(CC1CCN(c2cccc3c2C(=O)N(C2CCC(=O)NC2=O)C3=O)CC1)C[C@H]1CC[C@H](n2cc3cc(NC(=O)c4cccc(C(F)(F)F)n4)c(C(C)(C)O)cc3n2)CC1 (stereo partly shown) [I-317] | 10 to 100 nM | 10 to 100 nM | > 1000 nM | 1 to 10 nM | – | – | 10 to 100 nM | – |
| Cn1c(=O)n(C2CCC(=O)NC2=O)c2cccc(CCCN3CCOC4(CCN(C[C@H]5CC[C@H](n6cc(NC(=O)c7cnn8ccc(N9C[C@H]%10C[C@@H]9CO%10)nc78)c(C(F)F)n6)CC5)CC4)C3)c21 (stereo partly shown) [I-450] | – | – | > 1000 nM | – | 10 to 100 nM | < 10 nM | – | 1 to 10 nM |
| CN1C(=O)C(C2CCC(=O)NC2=O)c2cc(CCCOC3CCN(C[C@H]4CC[C@H](C5N=C(NC(=O)c6cnn7ccc(N8C[C@H]9C[C@@H]8CO9)nc67)C(C(F)F)=N5)CC4)CC3)ccc21 (stereo partly shown) [I-553] | – | – | > 1000 nM | 1 to 10 nM | 100 to 1000 nM | 10 to 100 nM | – | – |
| Cn1c(=O)n(C2CCC(=O)NC2=O)c2cccc(CC3CC4(CCN(C(=O)c5ccc(-n6cc(NC(=O)c7cnn8ccc(N9C[C@H]%10C[C@@H]9CO%10)nc78)c(C(F)F)n6)cc5)CC4)C3)c21 (stereo partly shown) [I-423] | 100 to 1000 nM | < 10 nM | > 1000 nM | 1 to 10 nM | – | – | – | – |
| Cn1c(=O)n(C2CCC(=O)NC2=O)c2cccc(C#CCC3CCN(C[C@H]4CC[C@H](C5N=C(NC(=O)c6cnn7ccc(N8CCOC(C)(C)C8)cc67)C(C(F)F)=N5)CC4)CC3)c21 (stereo partly shown) [I-532] | – | – | > 1000 nM | 1 to 10 nM | 10 to 100 nM | 10 to 100 nM | – | – |
| Cn1c(=O)n(C2CCC(=O)NC2=O)c2cccc(CCN3CC4(CCN(C(=O)[C@H]5CC[C@H](n6cc(NC(=O)c7cnn8ccc(N9C[C@H]%10C[C@@H]9CO%10)nc78)c(C(F)F)n6)CC5)CC4)C3)c21 (stereo partly shown) [I-420] | < 10 nM | < 10 nM | < 50 nM | < 1 nM | – | – | – | – |
| CN(CC(CCCOCCCc1cccc2c1n(C)c(=O)n2C1CCC(=O)NC1=O)C(=O)O)C[C@H]1CC[C@H](n2cc(NC(=O)c3coc(-c4ccnc(NCC5CC5)c4)n3)c(C(F)F)n2)CC1 (stereo partly shown) [I-396, 2-[[[4-[4-[[2-[2-(Cyclopropylmethylamino)-4-pyridyl]oxazole-4-carbonyl]amino]-3-(difluoromethyl)pyrazol-1-yl]cyclohexyl]methyl-methyl-amino]methyl]-5-[3-[1-(2,6-dioxo-3-piperidyl)-3-methyl-2-oxo-benzimidazol-4-yl]propoxy]pentanoic acid] | 10 to 100 nM | 10 to 100 nM | 50 to 100 nM | 1 to 10 nM | – | – | – | – |
| Cn1c(=O)n(C2CCC(=O)NC2=O)c2cccc(CCC3CC4(CCN(C[C@H]5CC[C@H](n6cc(NC(=O)c7cnn8ccc(N9C[C@H]%10C[C@@H]9CO%10)nc78)c(C(F)F)n6)CC5)CC4)C3)c21 (stereo partly shown) [I-486] | – | – | > 1000 nM | < 1 nM | < 10 nM | < 10 nM | – | – |
| Cn1c(=O)n(C2CCC(=O)NC2=O)c2cccc(CCCC3CCN(C[C@H]4CC[C@H](n5cc(NC(=O)c6cnn7ccc(N8C[C@H]9C[C@@H]8CO9)nc67)c(C(F)F)n5)CC4)CC3)c21 (stereo partly shown) [I-416] | < 10 nM | < 10 nM | > 1000 nM | < 1 nM | – | – | – | – |
| Cn1c(=O)n(C2CCC(=O)NC2=O)c2cccc(CCC(=O)C3CC4(CCN(C[C@H]5CC[C@H](n6cc(NC(=O)c7cnn8ccc(N9C[C@H]%10C[C@@H]9CO%10)nc78)c(C(F)F)n6)CC5)CC4)C3)c21 (stereo partly shown) [I-415] | < 10 nM | < 10 nM | > 1000 nM | < 1 nM | – | – | – | – |
| Cn1c(=O)n(C2CCC(=O)NC2=O)c2cccc(CCC3CCN(c4ccc(CN5CCC(n6cc(NC(=O)c7cnn8ccc(N9C[C@H]%10C[C@@H]9CO%10)nc78)c(C(F)F)n6)CC5)cc4)CC3)c21 (stereo partly shown) [I-517] | – | – | > 1000 nM | 1 to 10 nM | 10 to 100 nM | < 10 nM | – | – |
